US20230375502A1, “NEUROTRANSMITTER CONCENTRATION MEASURING APPARATUS FOR PROVIDING SECOND DERIVATIVE-BASED NEUROTRANSMITTER CONCENTRATION MEASUREMENT RESULT OF FAST-SCAN CYCLIC VOLTAMMETRY DATA AND METHOD THEREOF” (Daegu Gyeongbuk Institute of Science and Technology, priority 2022, published 2023)

System: striatum of Parkinson's disease (PD) model (6-OHDA) mice
Experiment: FSCV/SDBR measurement of tonic dopamine concentration in the striatum after levodopa infusion
Assay type: in vivo
Conditions: FSCV with SDBR, levodopa injected after about 15 minutes flat signal, increases for about 25 minutes, then re-saturates
From the text: FIGS. 8A and 8B illustrate results of measuring a neurotransmitter concentration in an in vivo experiment using the neurotransmitter concentration measuring apparatus according to an embodiment of the present disclosure. FIGS. 8A and 8B illustrate examples for confirming SDBR-based tonic dopamine measurement results, which can be confirmed through long-term measurement using standard FSCV data, through in vivo experiments by a neurotransmitter concentration measuring apparatus according to an embodiment of the present disclosure. The graphs 810 to 813 are shown to compare the results measured in the striatum of mice after levodopa infusion. To confirm the practicality of SDBR in the in vivo environment, FSCV results after levodopa infusion of the striatum of healthy mice and the striatum of Parkinson's disease (PD) model (6-OHDA) mice are shown in FIGS. 8A and 8B. Meanwhile, the graphs 810 to 813 of FIG. 8B show the results measured by FSCV in the striatum 15 minutes after levodopa was directly injected into the experimental mice, and the graphs 810 and 811 indicate that the amplitude of the dopamine peak consistently increases independent of drug infusion due to the background subtraction technique.

Q: `N[C@@H](Cc1ccc(O)c(O)c1)C(=O)O` [levodopa] was tested. Which “estimated dopamine concentration after levodopa infusion (SDBR)” value did it give?
A: 72.4 nM
